# Results reported in ChEMBL document CHEMBL2069307, “Triazolbenzo[d]thiazoles: efficient synthesis and biological evaluation as neuroprotective agents” (Bioorg Med Chem Lett, 2012).
# Active and inactive are the calls of the source. The calls are words filed in the database; no cut-off is given here.
# What was measured:
# [1] = Solubility of the compound; type: physicochemical
# SH-SY5Y [2] = assay: Neuroprotective activity against serum starvation-induced cell death in human SH-SY5Y cells assessed as increase in cell viability at 10 and 20 uM after 3 days by tetrazolium reduction assay; type: functional, cell-based
# SH-SY5Y [3] = assay: Neuroprotective activity against serum starvation-induced cell death in human SH-SY5Y cells assessed as increase in cell viability at 20 and 40 uM after 3 days by tetrazolium reduction assay; type: functional, cell-based
# SH-SY5Y [4] = assay: Neuroprotective activity against serum starvation-induced cell death in human SH-SY5Y cells assessed as increase in cell […] at 20 and 40 uM after 3 days by tetrazolium reduction assay; type: functional, cell-based
SMILES,solubility [1],Activity (SH-SY5Y [2]),solubility ([1]; read-out: solubility) [µM],Activity (SH-SY5Y [3]),Activity (SH-SY5Y [4])
COC(=O)c1cn(-c2ccc3nc(N4CCOCC4)sc3c2)nn1,Insoluble,inactive,,,
c1ccc(-c2cn(-c3ccc4nc(N5CCOCC5)sc4c3)nn2)cc1,Insoluble,inactive,,,
CC(C)n1c(=O)c2ccccc2n1Cc1cn(-c2ccc3nc(N4CCOCC4)sc3c2)nn1,,,> 40,Active,Active
